Where two headings read alike, the source gives them in different places.
What was measured:
[1] = test system: HeLa cells; assay: Compound screen by flow cytometry: HeLa cell count as surrogate readout of cell viability (z-scoreHeLa); type: cell-based, human; conditions: for cell count rep 1 / z-scoreHeLa rep 1: replicate 1; for cell count rep 2 / z-scoreHeLa rep 2: replicate 2; for cell count rep 3 / z-scoreHeLa rep 3: replicate 3; for z-scoreHeLa mean: mean of 3 replicates
Procedure, shortened: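 HeLa cells were infected with GFP-MRSA (mean MOI 6.8 ± 4.6) for 1 h, and extracellular bacteria were killed with 30 µg/ml gentamicin. Cells were then incubated overnight with kinase inhibitors in 5 µg/ml gentamicin, in triplicate against DMSO controls. Flow-cytometric cell count served as a viability surrogate, expressed as a plate z-score.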

[2] = test system: intracellular MRSA; type: cell-based, Staphylococcus aureus; conditions: for %GFP+ rep 1 / z-scoreMRSA+ rep 1: replicate 1; for %GFP+ rep 2 / z-scoreMRSA+ rep 2: replicate 2; for %GFP+ rep 3 / z-scoreMRSA+ rep 3: replicate 3; for z-scoreMRSA+ mean: mean of 3 replicates
Procedure, shortened: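 HeLa cells infected with GFP-MRSA (MOI ~6.8), gentamicin-cleared, then incubated overnight at 37°C with inhibitors plus 5 µg/ml gentamicin; DMSO as negative control, triplicates. Flow cytometry gave % GFP-positive cells and cell count (viability surrogate); hits by plate z-score (MRSA ≤ -2, HeLa count ≥ -3).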

[3] = PKIS compound screen raw data, HeLa cell count
[4] = PKIS compound screen, HeLa cell count
[5] = PKIS compound screen, Yes/No call on z-scoreHeLa
[6] = PKIS compound screen raw data, MRSA-infected HeLa cells
[7] = PKIS compound screen, MRSA-infected HeLa cells
[8] = PKIS compound screen, Yes/No call (effect without cell death)
[9] = PKIS compound screen, Yes/No call on z-scoreMRSA+
[10] = PKIS compound screen, Yes/No call
[11] = PKIS compounds raw data, HeLa cell count
[12] = PKIS compounds raw data, MRSA-infected HeLa cells
[13] = compound screen, HeLa cell count
[14] = Yes/No: effect without cell death
[15] = compound screen, MRSA-infected HeLa cells

Compound | cell count rep 1 [1, 3] | cell count rep 2 [1, 3] | cell count rep 3 [1, 3] | z-scoreHeLa mean [1, 4] | z-scoreHeLa rep 1 [1, 4] | z-scoreHeLa rep 2 [1, 4] | z-scoreHeLa rep 3 [1, 4] | cell death [1, 5] | %GFP+ rep 1 [2, 6] [%] | %GFP+ rep 2 [2, 6] [%] | %GFP+ rep 3 [2, 6] [%] | z-scoreMRSA+ mean [2, 7] | z-scoreMRSA+ rep 1 [2, 7] | z-scoreMRSA+ rep 2 [2, 7] | z-scoreMRSA+ rep 3 [2, 7] | hit [2, 8] | effect [2, 9] | cell count rep 1 [1, 11] | cell count rep 2 [1, 11] | cell count rep 3 [1, 11] | further results
c1ccc(Oc2ccc(Nc3ccnc4cc(-c5ccc(CN6CCNCC6)o5)ccc34)cc2)nc1 [GW567142A] | 37910 | 29813 | 27656 | 1.26 | 1.31 | 0.78 | 1.70 | No | 18.2 | 19.4 | 17.4 | -0.40 | -0.15 | -0.00228 | -1.05 | No | No |  |  |  | 
COc1cc(Nc2ncc3c(C)nc(-c4cc5ccccc5[nH]4)n3n2)cc(OC)c1OC [GW869516X] |  |  |  |  |  |  |  |  |  |  |  |  |  |  |  | No |  | 8188 | 8134 | 8115 | cell death [1, 10]: No; z-scoreHeLa mean ([1]; PKIS compound screen): 1.43; z-scoreHeLa rep 1 ([1]; PKIS compound screen): 1.29; z-scoreHeLa rep 2 ([1]; PKIS compound screen): 1.41; z-scoreHeLa rep 3 ([1]; PKIS compound screen): 1.60; effect [2, 10]: No; z-scoreMRSA+ mean ([2]; PKIS compound screen): -0.71; z-scoreMRSA+ rep 1 ([2]; PKIS compound screen): -0.87; z-scoreMRSA+ rep 2 ([2]; PKIS compound screen): -0.43; z-scoreMRSA+ rep 3 ([2]; PKIS compound screen): -0.83; %GFP+ rep 1 [2, 12]: 22.6%; %GFP+ rep 2 [2, 12]: 23.8%; %GFP+ rep 3 [2, 12]: 22.8%
O=C(c1ccc(-c2cc(-c3c[nH]nc3-c3ccccn3)ccn2)cc1)N1CCCC1 [GW792479X] | 29405 | 27776 | 26310 |  |  |  |  |  | 20.2 | 21.2 | 21.9 |  |  |  |  |  |  |  |  |  | cell death ([1]; Yes/No call from z-scoreHeLa): No; z-scoreHeLa mean [1, 13]: 0.58; z-scoreHeLa rep 1 [1, 13]: -0.13; z-scoreHeLa rep 2 [1, 13]: 0.43; z-scoreHeLa rep 3 [1, 13]: 1.44; effect ([2]; Yes/No call from z-scoreMRSA+): No; hit [2, 14]: No; z-scoreMRSA+ mean [2, 15]: 0.35; z-scoreMRSA+ rep 1 [2, 15]: 0.38; z-scoreMRSA+ rep 2 [2, 15]: 0.49; z-scoreMRSA+ rep 3 [2, 15]: 0.18
COc1ccc(Nc2nccc(N3CCC(NC(=O)c4cc5ccccc5s4)C3)n2)cc1 (stereo not drawn) [GSK1379738A] | 35022 | 33049 | 42431 | 0.75 | 2.26 | -0.32 | 0.30 | No | 23.4 | 24.0 | 25.7 | 1.73 | 1.76 | 1.65 | 1.80 | No | No |  |  |  | 
Cc1cc(-c2ccnc(Nc3cccc(C#N)c3)n2)cc(C)c1O [GSK1440913A] | 3913 | 3957 | 5747 |  |  |  |  |  | 19.8 | 21.2 | 19.2 |  |  |  |  |  |  |  |  |  | cell death ([1]; Yes/No call from z-scoreHeLa): No; z-scoreHeLa mean [1, 13]: -0.09; z-scoreHeLa rep 1 [1, 13]: -0.32; z-scoreHeLa rep 2 [1, 13]: -0.27; z-scoreHeLa rep 3 [1, 13]: 0.32; effect ([2]; Yes/No call from z-scoreMRSA+): No; hit [2, 14]: No; z-scoreMRSA+ mean [2, 15]: -0.84; z-scoreMRSA+ rep 1 [2, 15]: -1.28; z-scoreMRSA+ rep 2 [2, 15]: -0.34; z-scoreMRSA+ rep 3 [2, 15]: -0.90
CCS(=O)(=O)c1ccc(OC)c(Nc2nccc(N(C)c3ccc4c(C)n[nH]c4c3)n2)c1 [GW654652C] | 21654 | 25320 | 35112 | -0.80 | 0.23 | -1.77 | -0.86 | No | 13.7 | 14.6 | 13.9 | -1.43 | -1.32 | -1.18 | -1.79 | No | No |  |  |  | 
O=C(NC1CCN(c2ccnc(Nc3ccc(F)cc3)n2)C1)c1cc2ccccc2s1 (stereo not drawn) [GSK1379716A] | 35239 | 17173 | 16326 | -0.35 | 0.85 | -1.39 | -0.51 | No | 18.9 | 18.2 | 21.3 | -0.09 | 0.0322 | -0.33 | 0.0175 | No | No | 5074 | 4507 | 6035 | cell death [1, 10]: No; z-scoreHeLa mean ([1]; PKIS compound screen): -0.43; z-scoreHeLa rep 1 ([1]; PKIS compound screen): -0.58; z-scoreHeLa rep 2 ([1]; PKIS compound screen): -1.00; z-scoreHeLa rep 3 ([1]; PKIS compound screen): 0.28; effect [2, 10]: No; z-scoreMRSA+ mean ([2]; PKIS compound screen): 0.16; z-scoreMRSA+ rep 1 ([2]; PKIS compound screen): 0.26; z-scoreMRSA+ rep 2 ([2]; PKIS compound screen): 0.28; z-scoreMRSA+ rep 3 ([2]; PKIS compound screen): -0.07; %GFP+ rep 1 [2, 12]: 28.4%; %GFP+ rep 2 [2, 12]: 27.5%; %GFP+ rep 3 [2, 12]: 26.9%
Cc1cccc(-c2nc(Nc3ccc4ncsc4c3)c3ccccc3n2)n1 [GW867588X] |  |  |  |  |  |  |  |  |  |  |  |  |  |  |  | No |  | 7867 | 8486 | 9199 | cell death [1, 10]: No; z-scoreHeLa mean ([1]; PKIS compound screen): 1.67; z-scoreHeLa rep 1 ([1]; PKIS compound screen): 1.09; z-scoreHeLa rep 2 ([1]; PKIS compound screen): 1.64; z-scoreHeLa rep 3 ([1]; PKIS compound screen): 2.28; effect [2, 10]: No; z-scoreMRSA+ mean ([2]; PKIS compound screen): 0.0377; z-scoreMRSA+ rep 1 ([2]; PKIS compound screen): -0.25; z-scoreMRSA+ rep 2 ([2]; PKIS compound screen): 0.22; z-scoreMRSA+ rep 3 ([2]; PKIS compound screen): 0.14; %GFP+ rep 1 [2, 12]: 25.8%; %GFP+ rep 2 [2, 12]: 27.2%; %GFP+ rep 3 [2, 12]: 28.0%
Fc1cccc(COc2ccc(Nc3ncnc4cc(-c5ccc[nH]5)sc34)cc2Cl)c1 [GW693881A] |  |  |  |  |  |  |  |  |  |  |  |  |  |  |  |  |  | 5481 | 4577 | 7047 | cell death ([1]; Yes/No call from z-scoreHeLa): No; z-scoreHeLa mean [1, 13]: 0.30; z-scoreHeLa rep 1 [1, 13]: 0.64; z-scoreHeLa rep 2 [1, 13]: 0.23; z-scoreHeLa rep 3 [1, 13]: 0.04; %GFP+ rep 1 [2, 12]: 15.5%; %GFP+ rep 2 [2, 12]: 14.8%; %GFP+ rep 3 [2, 12]: 13.6%; effect ([2]; Yes/No call from z-scoreMRSA+): No; hit [2, 14]: No; z-scoreMRSA+ mean [2, 15]: 0.17; z-scoreMRSA+ rep 1 [2, 15]: 0.75; z-scoreMRSA+ rep 2 [2, 15]: 0.44; z-scoreMRSA+ rep 3 [2, 15]: -0.68
Fc1ccc(-c2ncn(C3CCNCC3)c2-c2ccnc(Oc3ccc(F)c(F)c3)n2)cc1 [SB-253228] | 9973 | 28239 | 36229 | -1.15 | -1.54 | -1.22 | -0.68 | No | 13.5 | 14.9 | 15.9 | -1.22 | -1.38 | -1.09 | -1.18 | No | No |  |  |  | 
